The values that follow come from ChEMBL document CHEMBL2203267, “Synthesis, antioxidant and antimicrobial activity of novel vanillin derived piperidin-4-one oxime esters: preponderant role of the phenyl ester substituents on the piperidin-4-one oxime core” (Bioorg Med Chem Lett, 2012).

SMILES strings stand for the structures.

Test [1] has as its system Pseudomonas aeruginosa. Description: Antibacterial activity against Pseudomonas aeruginosa ATCC 27853 at 1000 ug/mL after 24 hrs by well plate method. In kind it is functional. The conditions noted are these: ATCC 27853, 24 h, read-out: DIZ.
Test [2] deals with Staphylococcus aureus. Briefly: Antibacterial activity against Staphylococcus aureus ATCC 25923 at 500 ug/mL after 24 hrs by well plate method. The class given is functional. The settings on record: ATCC 25923, 24 h, read-out: DIZ.
In test [3] the test system is Staphylococcus aureus. Description: Antibacterial activity against Staphylococcus aureus ATCC 25923 at 1000 ug/mL after 24 hrs by well plate method. The class given is functional. The settings on record: ATCC 25923, 24 h, read-out: DIZ.
For test [4], the system named is Escherichia coli. Description: Antibacterial activity against Escherichia coli ATCC 25922 at 500 ug/mL after 24 hrs by well plate method. The class given is functional. The settings on record: ATCC 25922, 24 h, read-out: DIZ.
In test [5] the test system is Escherichia coli. Briefly: Antibacterial activity against Escherichia coli ATCC 25922 at 1000 ug/mL after 24 hrs by well plate method. The class given is functional. The settings on record: ATCC 25922, 24 h, read-out: DIZ.
Test [6] is described as follows: Antioxidant activity assessed as ABTS+ radical scavenging activity after 30 mins by UV-vis spectrophotometric analysis. The class given is functional.
The test system of a further test is Liver microsomes. Briefly: Antioxidant activity in Wistar rat liver microsomes assessed as inhibition of lipid peroxidation after 60 mins by UV-vis spectrophotometric analysis. In kind it is functional, Microsome. (In general: Liver microsomes are vesicles of endoplasmic reticulum, rich in cytochrome P450 enzymes.)
Test [7] deals with Radical scavenging activity. Description: Antioxidant activity assessed as DPPH radical scavenging activity after 20 mins by UV-vis spectrophotometric analysis. In kind it is functional. In general terms: DPPH is a stable violet radical that fades when it is reduced.
For test [8], the system named is Candida albicans. Description: Antifungal activity against Candida albicans MTCC 3017 at 500 ug/mL after 72 hrs by well plate method. The class given is functional. The conditions noted are these: MTCC 3017, 72 h, read-out: DIZ.
In test [9] the test system is Candida albicans. Description: Antifungal activity against Candida albicans MTCC 3017 at 1000 ug/mL after 72 hrs by well plate method. In kind it is functional. The conditions noted are these: MTCC 3017, 72 h, read-out: DIZ.
A short description of test [10]: Antifungal activity against Chrysosporium keratinophilum MTCC 2827 at 500 ug/mL after 72 hrs by well plate method. In kind it is functional.
Test [11] in a line: Antifungal activity against Chrysosporium keratinophilum MTCC 2827 at 1000 ug/mL after 72 hrs by well plate method. The class given is functional.
Test [12] has as its system Aspergillus flavus. Description: Antifungal activity against Aspergillus flavus MTCC 3306 at 500 ug/mL after 72 hrs by well plate method. The class given is functional. The conditions noted are these: MTCC 3306, 72 h, read-out: DIZ.
Test [13] has as its system Aspergillus flavus. Description: Antifungal activity against Aspergillus flavus MTCC 3306 at 1000 ug/mL after 72 hrs by well plate method. In kind it is functional. The settings on record: MTCC 3306, 72 h, read-out: DIZ.
For test [14], the system named is Pseudomonas aeruginosa. Briefly: Antibacterial activity against Pseudomonas aeruginosa ATCC 27853 at 500 ug/mL after 24 hrs by well plate method. The settings on record: ATCC 27853, 24 h, read-out: DIZ. The class given is functional.

Broadly, the IC50 is the concentration at which inhibition is half-maximal. `COc1cc(C2CC(=NO)CC(c3ccc(O)c(OC)c3)N2C)ccc1O` (stereo not given): the zone of inhibition at 1000 µg/mL in the test on Pseudomonas aeruginosa [1], with Staphylococcus aureus [3], with Escherichia coli [5], in the test with Candida albicans [9] and in the test with Aspergillus flavus [13] was 1 mm each time. Besides, the zone of inhibition at 500 µg/mL in the test with Staphylococcus aureus [2], in the test with Escherichia coli [4], in the test on Candida albicans [8], with Aspergillus flavus [12] and in the test with Pseudomonas aeruginosa [14] was 0 mm throughout. Further, the IC50 was 158 µM in test [6], 167 µM in the test on Liver microsomes and 144 µM in [7]. In addition, the inhibition zone (IZ) in test [10] and in test [11] was 1 mm throughout.
For the molecule `COc1cc(C2CC(=NOC(=O)c3ccc([N+](=O)[O-])cc3)CC(c3ccc(O)c(OC)c3)N2C)ccc1O` (stereo not given), the zone of inhibition at 1000 µg/mL turned out to be 8 mm in the test on Pseudomonas aeruginosa [1]; 8 mm in the test on Staphylococcus aureus [3]; 8 mm in the test on Escherichia coli [5]; 6 mm in the test on Candida albicans [9]; 4 mm in the test with Aspergillus flavus [13]. In addition, the zone of inhibition at 500 µg/mL with Staphylococcus aureus [2] is 5 mm; in the test on Escherichia coli [4], 4 mm; in the test with Candida albicans [8] it was 7 mm; in the test with Aspergillus flavus [12], 3 mm; with Pseudomonas aeruginosa [14] it was 5 mm. Besides, the 50% inhibitory concentration (IC50) came out at 79 µM in test [6], 82 µM with Liver microsomes and 76 µM in test [7]. Also, the inhibition zone (IZ) stood at 4 mm in test [10] and 5 mm in test [11].
Take `COc1ccc(C(=O)ON=C2CC(c3ccc(O)c(OC)c3)N(C)C(c3ccc(O)c(OC)c3)C2)cc1` (stereo not given): the zone of inhibition at 1000 µg/mL in the test on Pseudomonas aeruginosa [1] came out at 4 mm; in the test with Staphylococcus aureus [3] it was 4 mm; in the test with Escherichia coli [5], 3 mm; with Candida albicans [9], 7 mm; with Aspergillus flavus [13] it was 6 mm. The zone of inhibition at 500 µg/mL is 2 mm in the test with Staphylococcus aureus [2]; 2 mm in the test with Escherichia coli [4]; 5 mm in the test on Candida albicans [8]; 5 mm in the test with Aspergillus flavus [12]; 3 mm with Pseudomonas aeruginosa [14]. Besides, the concentration for half-maximal inhibition (IC50) came to 33 µM in test [6], 40 µM with Liver microsomes and 28 µM in test [7]. In addition, the inhibition zone (IZ) in test [10] and in [11] was 4 mm throughout.
Consider `COc1cc(C2CC(=NOC(=O)c3ccc(Br)cc3)CC(c3ccc(O)c(OC)c3)N2C)ccc1O` (stereo not given), for which the zone of inhibition at 1000 µg/mL came out at 9 mm with Pseudomonas aeruginosa [1]; 9 mm with Staphylococcus aureus [3]; 11 mm in the test on Escherichia coli [5]; 9 mm with Candida albicans [9]; 6 mm in the test with Aspergillus flavus [13]. For the same molecule, the zone of inhibition at 500 µg/mL stood at 7 mm with Staphylococcus aureus [2]; 7 mm with Escherichia coli [4]; 8 mm with Candida albicans [8]; 5 mm with Aspergillus flavus [12]; 7 mm in the test on Pseudomonas aeruginosa [14]. Further, the IC50 in [6] was determined as 108 µM; with Liver microsomes, 112 µM; in test [7] it was 103 µM. For the same molecule, the inhibition zone (IZ) in test [10] was 5 mm; in test [11], 7 mm.
